Here are results for 1 compound from article PMC9474773, “PARP targeted Auger emitter therapy with [^125I]PARPi-01 for triple-negative breast cancer” (EJNMMI Research, 2022).

The test system of this series is subcutaneous MDA-MB-231 models. Description: Endogenous therapy study (CT-based tumour growth, survival, [18F]FDG PET). Type of series: in vivo, NOD/SCID mice. How it is done:
Female NOD/SCID mice at 5–6 weeks of age (Janvier, France) was used for developing subcutaneous TNBC tumour. Animals were housed in 20–24 °C in a 12 h day light cycle. For each mouse, 3 × 10^6 MDA-MB-231 cells were suspended in a 1:1 (volume) mixture of Culture media: Matrigel® matrix (Corning®, Product No: 356237). Mice were inoculated with this cell suspension (max 200 µl) subcutaneously in the right flank. Tumour growth was monitored daily using calliper measurements. Tumour volume was calculated daily according to the formula Tumourvolume=TumourLength×Tumourbreadth^2×0.52
Upon reaching of a tumour volume of 500 mm^3, animals were proceeded for experiments. For biodistribution study animals were administered with [^123I]PARPi-01 (n = 3). For therapy studies animals were randomized for control (n = 10) or [^125I]PARPi-01 administration (n = 10). Randomisation was done based on equivalent distribution of tumour volumes. In addition to the daily calliper measurements image analysis of CT based tumour volumes was blinded to avoid bias. Animals were sacrificed upon completion of biodistribution study or upon reaching a humane end point for the therapy study. Humane end point is determined as reaching of either of the following conditions: 15 mm tumour diameter, 1500 mm^3 tumour volume, or development of ulcers/ascites.
Mice were administered intravenously via lateral tail vain with Saline (0.9% NaCl) or [^125I]PARPi-01 (8.15 ± 2.9 MBq/dose) in four doses at 10-day intervals. The tumour volume was measured using [^18F]FDG based PET/CT (Trifoil, USA) once per week. [^18F]FDG (2.3 ± 0.4 MBq, AAA, Düsseldorf, Germany) was intraperitoneally administered and scanned 30 min later. Upon reaching 520 mm^3 tumour volume, one additional CT imaging per week (Trifoil, USA) apart from the PET/CT was performed for monitoring tumour growth.
After injection with [^18F]FDG, the mice were placed on the scanner bed and the CT scan was initiated. The exposure settings used were as follows: 130 uA, 75 kVp, 230 ms exposure time, and 360° rotation with 512 views; the duration of the CT scans was ~ 5 min. A dynamic 30 min PET scan was initiated at the end of the CT scan. […] During the scans, the isoflurane concentration was adapted to achieve a respiratory rate between 75–50 breaths per minute. Mice were maintained at 1% Isoflurane and heated at 37 °C from anaesthesia induction to the end of imaging. The CT images were reconstructed using a Feldkamp filtered back projection reconstruction process to a voxel size of 0.154 × 0.154 × 0.154 mm in a 592 × 592 × 560 matrix. Using vendor software, the CT values were converted into Hounsfield units (HU) using the following formula HU=1000×μt-μw÷μw where µw is the linear attenuation coefficient of the water and µt is the linear attenuation coefficient of the tissue. The PET data were reconstructed using a 3D ordered-subset expectation maximization (i.e., OSEM-3D with three iterations and eight subsets) with a maximum a posteriori probability algorithm (30 iterations) into a 240 × 240 × 192 image matrix (resulting in final voxel dimensions of 0.25 × 0.25 × 0.597 mm). PET normalization, CT attenuation correction, and CT scatter correction were applied to all PET reconstructions. The PET images were automatically aligned to the CT using a custom-made transformation in PMOD software package from a capillary phantom.
All statistical analyses were performed using the Graph-Pad Prism software (Version 9.1.1). Biodistribution data is expressed as mean ± standard deviation. Kaplan–Meier Survival curve was analysed using survival analysis (Log rank Mantel-Cox test). The data points of the normalized tumour volume as a function of the time of the groups (Control, ^125I-PARPi, Control—excluded ulcers, ^125I-PARPi—excluded ulcers) were subjected to nonlinear regression analysis using the exponential growth formula Y = Y0*exp(k*x) (Malthusian). Accordingly, the doubling time is equal to ln(2)/k. […]

On to `O=C(c1ccc([125I])cc1)N1CCN(C(=O)c2cc(Cc3n[nH]c(=O)c4ccccc34)ccc2F)CC1` [[^125I]PARPi-01], for which the “radiotoxicity in liver and thyroid” value (4 doses, 10 MBq/dose) is given as “No radiotoxicity was detected”. Also, the tumour doubling time amounted to 15.07 days (CT-based, excluding animals sacrificed for ulcers/ascites, n = 5) and 14.2 days (CT-image-based, 4 doses 10 days apart, all animals n = 10). In addition, the median survival (all animals n = 10, not significant vs control (P = 0.2505)) amounted to 36 days. Further, the median survival time (excluding animals sacrificed for ulcers/ascites) is given as 38. For the same compound, the “[18F]FDG PET SUV values and tumour metabolic volumes, therapy vs control” value (mouse, in vivo) was “did not show significant difference”.
